In patent publication US20070105721A1, “Vinylogous 4-Hpyrones and their use in promoting plant growth” (priority 2003, published 2007):

Experiments:
[1] = tested on: Emmenanthe penduliflora seeds; experiment: Duration of priming required to induce a germination response; type: in vivo; conditions: priming in 100 ppb compound 1a, re-drying then incubation; FIG. 5
Protocol: To determine the duration of priming required to induce a germination response, three replicates of 20 seeds of Emmenanthe penduliflora were soaked in at 23° C. in a 100 ppb compound 1a solution for 1, 5, 10, 20, 40 or 80 min or 3, 6, 12, 24 or 48 hr. The seeds were re-dried for 24 hr at 23° C. and placed on Petri dishes lined with seed germination paper and moistened with de-ionised water. The Petri dishes were incubated at 18° C. in constant darkness. Germination (radicle emergence) was recorded every 2-3 days until germination had ceased.

Camissonia califomica = experiment: Germination on moist filter paper in petri dishes; type: in vivo; conditions: SW 1/10 dilution, compound 1a 10 ppb
[2] = tested on: intact or de-hulled Microlaena stipoides seeds; experiment: Compound 1a as a replacement for de-hulling of grass species; type: in vivo; conditions: 100 ppb compound 1a
Protocol: Intact or de-hulled seeds were employed for this experiment. Seeds were de-hulled manually by carefully extracting the seeds from the surrounding palea and lemma. Three replicates of 25 intact or de-hulled seeds were placed on Petri dishes lined with seed germination paper. The Petri dishes were moistened with de-ionised water (control) or 100 ppb compound 1a. All species were incubated in constant darkness at 18° C. Germination (radicle emergence) was recorded every 2-3 days until germination had ceased.

Lawrencella davenportii = experiment: Germination on moist filter paper in petri dishes; type: in vivo; conditions: SW 1/10 dilution, compound 1a 10 ppb
[3] = tested on: Acetosa vesicaria (ruby dock); experiment: Weed germination enhancement; type: in vivo; conditions: compound 1a at 100 ppb; note: tested at 0.1 ppm
Protocol: (§1) For each species, four replicates of 25 seeds were placed on Petri dishes lined with seed germination paper. The Petri dishes were moistened with de-ionised water (control) or 100 ppb compound 1a. All species were incubated in constant darkness at 12/12 hr alternating temperatures of 7/18° C., 13/26° C. or 18/33° C. Germination (radicle emergence) was recorded every 2-3 days until germination had ceased.

[4] = tested on: Brassica tournefortii (wild turnip); experiment: Weed germination enhancement; type: in vivo; conditions: compound 1a at 100 ppb; note: tested at 0.1 ppm
Protocol: as §1

Avena fatua (wild oats) = experiment: Weed germination enhancement; type: in vivo; conditions: compound 1a at 100 ppb; mean ± standard error; note: tested at 0.1 ppm
Protocol: as §1

[5] = tested on: Petroselinium crispum (parsley) seeds; experiment: Seed vigour enhancement; type: in vivo; conditions: 100 ppb compound 1a; note: tested at 0.1 ppm
Protocol: as §1, with “five” for “four”, “20” for “25”, “was scored on radicle emergence and” for “(radicle emergence)”

[6] = tested on: Allium ampeloprasum (leek) seeds; experiment: Seed vigour enhancement; type: in vivo; conditions: 100 ppb compound 1a; note: tested at 0.1 ppm
Protocol: as §1, with “five” for “four”, “20” for “25”, “was scored on radicle emergence and” for “(radicle emergence)”

Caulanthus heterophyllus = experiment: Germination on moist filter paper in petri dishes; type: in vivo; conditions: SW 1/10 dilution, compound 1a 10 ppb
[7] = tested on: somatic embryos induced from shoot and coleoptile explants of Baloskion tetraphyllum; experiment: Reactivity of compound 1a with somatic tissue; type: cell-based; conditions: for Frequency of shoot formation / Number of shoots: after culturing for 20 days, compound 1a at 10 ppb; for Frequency of shoot formation: tested at 0.01 ppm; for Number of shoots: tested at 0.01 ppm
Protocol: Seeds were cultured on PGR-free 1/2 MS medium for 4 weeks in darkness, then 3 mm coleoptile sections were removed under aseptic conditions and explanted to culture media supplemented with […] 2,4-dichlorophenoxyacetic acid and compound 1a (0, 1.0, 10, 100 ppb, respectively), with incubation in darkness at 22-25° C. Each plate was inoculated with 10 coleoptile sections and every treatment was replicated by 6 plates. […] Shoots of Baloskion tetraphyllum were cultured on 1/2 MS basal medium supplemented with […] in 16 hr light culture (PPFD of 30 μmolm^−2s^−1). After two months, whole shoots were trimmed of upper leaf and basal roots to 4 mm in length, then explanted to culture media with 1 mM 2,4-dichlorophenoxyacetic acid and supplemented with different concentrations of compound 1a (0, 1.0, 10, 100 ppb, respectively) and incubated in darkness at 22-25° C. Each plate was inoculated with 10 trimmed shoots and every treatment replicated with 4 plates. Somatic embryogenesis and plant regeneration was investigated at various intervals.

Stylidium affine seeds = experiment: Native bioassay; type: in vivo
Protocol: (§2) Conostylis aculeata and Stylidium affine seeds were obtained from Nindethana seed service and stored before use. For testing of aqueous samples, three replicates of 20-30 sterilised seeds were added to UV sterilised petri dishes (90 mm), containing two Whatman No. 1 filter papers (7 cm) moistened with the filtered test solution (2.5 mL, 0.22 μm). MP water was used as a control for each experiment and dilutions of each sample were used to ensure the optimum concentration range for activity. Petri dishes were then sealed with parafilm and incubated in the dark at 20±1° C. The seeds were scored on a weekly basis with optimum germination achieved between 4-6 weeks.

[8] = tested on: Conostylis aculeata seeds; experiment: Native bioassay; type: in vivo
Protocol: as §2

Melaleuca carrii seeds = experiment: Seed vigour enhancement (cumulative germination); type: in vivo; conditions: compound 1a at 100 ppb; FIG. 3
Protocol: as §1, with “five” for “four”, “20” for “25”, “was scored on radicle emergence and” for “(radicle emergence)”

[9] = tested on: Gompholobium tomentosum seeds; experiment: Seed vigour enhancement (cumulative germination); type: in vivo; conditions: compound 1a at 100 ppb; FIG. 3
Protocol: as §1, with “five” for “four”, “20” for “25”, “was scored on radicle emergence and” for “(radicle emergence)”

Hakea undulata seeds = experiment: Seed vigour enhancement (cumulative germination); type: in vivo; conditions: compound 1a at 100 ppb; FIG. 4
Protocol: as §1, with “five” for “four”, “20” for “25”, “was scored on radicle emergence and” for “(radicle emergence)”

[10] = 26/13 ° C. 12/12 hr alternating
[11] = 33/18 ° C. 12/12 hr alternating
[12] = 1/10 (of neat SW; of compound 1a 1 mg/L)
[13] = 1/100 (of neat SW; of compound 1a 1 mg/L)
[14] = Neat (neat SW; compound 1a 1 mg/L), mean (SEM)
[15] = compounds isolated from smoke, mean (SEM)

Cc1c2ccocc-2oc1=O [Compound 1a, 3-Methyl-2H-furo[2,3-c]pyran-2-one]
duration of priming sufficient to induce germination promotion [1]: 1 min
Germination, Camissonia califomica (Camissonia califomica): 85.3 (±4.8) b %
Germination (%), Microlaena stipoides ([2]; De-hulled seeds): 100 ± 0.0 a %
Germination (%), Microlaena stipoides ([2]; Intact seeds): 78.3 ± 6.3 b %
Germination, Lawrencella davenportii (Lawrencella davenportii): 56.3 (±8.5) b %
germination percentage, Acetosa vesicaria (ruby dock) [3]: 30.0 ± 7.6 b %
germination percentage, Brassica tournefortii (wild turnip) [4]: 92.0 ± 2.8 b %
germination percentage, Avena fatua (wild oats) (Avena fatua (wild oats)): 38.0 ± 4.3 b %
Germination (%), Parsley ([5]; 18/7 ° C. 12/12 hr alternating): 27.0 ± 1.9 a %
Germination (%), Parsley [5, 10]: 70 ± 5.6 b %
Germination (%), Parsley [5, 11]: 29.0 ± 6.8 b %
Germination (%), Leek ([6]; 18/7 ° C. 12/12 hr alternating, mean ± standard error): 97.1 ± 0.9 a %
Germination (%), Leek [6, 10]: 92.0 ± 4.3 a %
Germination (%), Leek [6, 11]: 72.0 ± 6.3 b %
Germination, Caulanthus heterophyllus (Caulanthus heterophyllus): 97.3 (±0.7) b %
Frequency of shoot formation ([7]; Coleoptile explants): 37.0
Number of shoots ([7]; Coleoptile explants): 4.5
Frequency of shoot formation ([7]; Shoot explants): 58.6
Number of shoots ([7]; Shoot explants): 7.8
root formation and plantlet maturation ([7]; once somatic embryos are induced): significantly enhances
plantlet recovery and regeneration ([7]; somatic embryos transferred to hormone-free medium): significantly improved
effect on the induction phase of somatic embryogenesis ([7]; with 2,4-dichlorophenoxyacetic acid): no apparent effect
Stylidium affine germination (Stylidium affine seeds; 1/10 000 of compound 1a 1 mg/L): 39.9 (10.9) %
Stylidium affine germination (Stylidium affine seeds; [12]): 83.4 (3.7) %
Stylidium affine germination (Stylidium affine seeds; [13]): 71.8 (1.7) %
Stylidium affine germination (Stylidium affine seeds; 1/1000 of compound 1a 1 mg/L): 70.9 (3.1) %
Stylidium affine germination (Stylidium affine seeds; [14]): 79.0 (3.1) %
Germination, Stylidium affine (Stylidium affine seeds; [15]): 67.9 (2.5) %
Conostylis aculeate germination ([8]; 1/10 000 of compound 1a 1 mg/L): 29.4 (3.4) %
Conostylis aculeate germination [8, 12]: 48.2 (4.0) %
Conostylis aculeate germination [8, 13]: 50.6 (6.5) %
Conostylis aculeate germination ([8]; 1/1000 of compound 1a 1 mg/L): 43.0 (4.5) %
Conostylis aculeate germination [8, 14]: 46.3 (3.1) %
Germination, Conostylis aculeata [8, 15]: 46.5 (4.9) %
germination rate (cumulative germination), Melaleuca carrii (Melaleuca carrii seeds): improved germination rate
germination rate (cumulative germination), Gompholobium tomentosum [9]: improved germination rate
germination rate (cumulative germination), Hakea undulata (Hakea undulata seeds): improved germination rate
